Earlier results, collected in patent publication US20090136558A1, “Anti-Restenosis Coatings and Uses Thereof” (VASOTECH, INC., priority 2004, published 2009).

Conditions: through specific binding to individual binding proteins

## CO[C@H]1C[C@@H]2CC[C@@H](C)[C@@](O)(O2)C(=O)C(=O)N2CCCC[C@H]2C(=O)O[C@H]([C@H](C)C[C@@H]2CC[C@@H](O)[C@H](OC)C2)CC(=O)[C@H](C)/C=C(\C)[C@@H](O)[C@@H](OC)C(=O)[C@H](C)C[C@H](C)/C=C/C=C/C=C/1C [sirolimus, Sirolimus]
  retention in blood vessel wall after releasing from stent: retained well in blood vessel wall for up to three days
